Results published in patent publication US20160362408A1 (Bayer Pharma Aktiengesellschaft, priority 2013, published 2016).

target: T1, recombinant guanylate cyclase reporter cell line (Rattus norvegicus, UniProt P19686+P20595); assay: Effect on a recombinant guanylate cyclase reporter cell line; type: cell-based; conditions: MEC = minimum effective concentration; in some cases mean values for individual determinations
T1 construct: expressed in transfected cells
T1 sequence (P19686 1-690): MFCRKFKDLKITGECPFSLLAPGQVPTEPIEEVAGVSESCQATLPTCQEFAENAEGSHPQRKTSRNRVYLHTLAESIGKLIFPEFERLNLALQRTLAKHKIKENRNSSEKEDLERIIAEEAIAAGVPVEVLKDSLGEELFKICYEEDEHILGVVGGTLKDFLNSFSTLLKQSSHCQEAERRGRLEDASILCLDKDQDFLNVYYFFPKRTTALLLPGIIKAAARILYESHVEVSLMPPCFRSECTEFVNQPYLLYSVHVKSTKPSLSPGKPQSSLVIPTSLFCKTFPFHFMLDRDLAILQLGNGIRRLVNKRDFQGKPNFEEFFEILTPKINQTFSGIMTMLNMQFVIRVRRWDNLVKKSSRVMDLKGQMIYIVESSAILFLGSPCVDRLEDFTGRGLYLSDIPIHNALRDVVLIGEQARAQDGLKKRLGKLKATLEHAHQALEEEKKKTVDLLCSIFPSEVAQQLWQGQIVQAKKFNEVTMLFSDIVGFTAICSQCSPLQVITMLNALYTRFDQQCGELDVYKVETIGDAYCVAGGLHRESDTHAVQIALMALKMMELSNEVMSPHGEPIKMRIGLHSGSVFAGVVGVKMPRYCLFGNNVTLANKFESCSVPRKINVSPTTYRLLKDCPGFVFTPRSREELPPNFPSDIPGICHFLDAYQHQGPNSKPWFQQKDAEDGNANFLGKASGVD
T1 sequence (P20595 1-619): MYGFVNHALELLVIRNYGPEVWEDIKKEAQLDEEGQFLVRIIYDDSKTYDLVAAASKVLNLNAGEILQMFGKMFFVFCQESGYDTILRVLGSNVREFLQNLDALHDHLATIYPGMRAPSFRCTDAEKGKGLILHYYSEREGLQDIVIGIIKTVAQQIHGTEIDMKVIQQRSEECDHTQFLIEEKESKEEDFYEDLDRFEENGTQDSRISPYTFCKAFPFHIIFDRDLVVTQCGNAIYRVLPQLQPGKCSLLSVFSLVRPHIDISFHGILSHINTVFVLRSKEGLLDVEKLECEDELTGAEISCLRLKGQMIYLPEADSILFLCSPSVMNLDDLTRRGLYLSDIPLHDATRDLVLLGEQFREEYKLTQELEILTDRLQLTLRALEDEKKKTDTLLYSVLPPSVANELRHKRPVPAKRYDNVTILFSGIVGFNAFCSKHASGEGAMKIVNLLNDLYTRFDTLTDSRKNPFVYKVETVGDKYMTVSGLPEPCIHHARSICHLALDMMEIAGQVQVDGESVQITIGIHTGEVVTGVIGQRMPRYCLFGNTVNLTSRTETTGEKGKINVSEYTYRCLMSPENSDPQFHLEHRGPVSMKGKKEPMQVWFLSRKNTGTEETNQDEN
Protocol: B-2. Effect on a Recombinant Guanylate Cyclase Reporter Cell Line
The cellular action of the compounds of the invention is determined using a recombinant guanylate cyclase reporter cell line, as described in F. Wunder et al., Anal. Biochem. 339, 104-112 (2005).
Representative MEC values (MEC=minimum effective concentration) for the compounds of the invention are shown in the table below (in some cases as mean values for individual determinations): […]

MEC	Molecule
10 µM	Cc1nc2c(OCc3c(F)cccc3F)cccn2c1C(=O)Nc1cnn(CCN2CCC(O)C2)c1 (racemic) [Example 131, rac-8-[(2,6-difluorobenzyl)oxy]-N-{1-[2-(3-hydroxypyrrolidin-1-yl)ethyl]-1H-pyrazol-4-yl}-2-methylimidazol[1,2-a] pyridine-3-carboxamide]
0.3 µM	Cc1n[nH]cc1NC(=O)c1c(C)nc2c(OCc3c(F)cccc3F)cccn12 [Example 3]
0.3 µM	Cc1nn(C)cc1NC(=O)c1c(C)nc2c(OCc3c(F)cccc3F)cccn12 [Example 4]
0.3 µM	Cc1cccc(NC(=O)c2c(C)nc3c(OCc4c(F)cccc4F)cccn23)n1 [Example 5]
0.3 µM	Cc1ccc(F)c(NC(=O)c2c(C)nc3c(OCc4c(F)cccc4F)cccn23)c1 [Example 9]
0.3 µM	COc1cccc(C)c1NC(=O)c1c(C)nc2c(OCc3c(F)cccc3F)cccn12 [Example 15]
0.3 µM	Cc1nc2c(OCc3c(F)cccc3F)cccn2c1C(=O)Nc1cccc(C(C)O)c1 (stereo not shown) [Example 17]
3.0 µM	Cc1nc2c(OCc3c(F)cccc3F)cccn2c1C(=O)Nc1cc[nH]n1 [Example 19]
1.0 µM	Cc1nc2c(OCc3c(F)cccc3F)cccn2c1C(=O)Nc1ccnn1C(C)C [Example 21]
1.43 µM	Cc1nc2c(OCc3c(F)cccc3F)cccn2c1C(=O)Nc1cnn(CCO)c1 [Example 22, 8-[(2,6-Difluorobenzyl)oxy]-N-[1-(2-hydroxyethyl)-1H-pyrazol-4-yl]-2-methylimidazo[1,2-a]pyridine-3-carboxamide]
0.65 µM	Cc1noc(C)c1NC(=O)c1c(C)nc2c(OCc3c(F)cccc3F)cccn12 [Example 23, 8-[(2,6-difluorobenzyl)oxy]-N-(3,5-dimethyl-1,2-oxazol-4-yl)-2-methylimidazo[1,2-a]pyridine-3-carboxamide]
1.0 µM	COCCn1cc(NC(=O)c2c(C)nc3c(OCc4c(F)cccc4F)cccn23)cn1 [Example 26, 8-[(2,6-difluorobenzyl)oxy]-N-[1-(2-methoxyethyl)-1H-pyrazol-4-yl]-2-methylimidazo[1,2-a]pyridine-3-carboxamide]
0.3 µM	Cc1nc2c(OCc3c(F)cccc3F)cccn2c1C(=O)Nc1cnn(C(C)C)c1 [Example 27, 8-[(2,6-difluorobenzyl)oxy]-N-(1-isopropyl-1H-pyrazol-4-yl)-2-methylimidazo[1,2-a]pyridine-3-carboxamide]
0.53 µM	Cc1n[nH]c(C)c1NC(=O)c1c(C)nc2c(OCc3c(F)cccc3F)cccn12 [Example 29, 8-[(2,6-difluorobenzyl)oxy]-N-(3,5-dimethyl-1H-pyrazol-4-yl)-2-methylimidazo[1,2-a]pyridine-3-carboxamide]
1.0 µM	Cc1nn(CC(F)(F)F)cc1NC(=O)c1c(C)nc2c(OCc3c(F)cccc3F)cccn12 [Example 33, 8-[(2,6-difluorobenzyl)oxy]-2-methyl-N-[3-methyl-1-(2,2,2-trifluoroethyl)-1H-pyrazol-4-yl]imidazo[1,2-a]pyridine-3-carboxamide]
3.0 µM	Cc1nc2c(OCc3c(F)cccc3F)cccn2c1C(=O)Nc1cnn(Cc2cccc(F)c2)c1 [Example 35, 8-[(2,6-difluorobenzyl)oxy]-N-[1-(3-fluorobenzyl)-1H-pyrazol-4-yl]-2-methylimidazo[1,2-a]pyridine-3-carboxamide]
1.0 µM	CNC(=O)c1c(NC(=O)c2c(C)nc3c(OCc4c(F)cccc4F)cccn23)cnn1C [Example 36, 8-[(2,6-difluorobenzyl)oxy]-2-methyl-N-[1-methyl-5-(methylcarbamoyl)-1H-pyrazol-4-yl]imidazo[1,2-a]pyridine-3-carboxamide]
0.3 µM	Cc1nn(CCO)c(C)c1NC(=O)c1c(C)nc2c(OCc3c(F)cccc3F)cccn12 [Example 37, 8-[(2,6-difluorobenzyl)oxy]-N-[1-(2-hydroxyethyl)-3,5-dimethyl-1H-pyrazol-4-yl]-2-methylimidazo[1,2-a]pyridine-3-carboxamide]
1.0 µM	CCn1nc(C)c(NC(=O)c2c(C)nc3c(OCc4c(F)cccc4F)cccn23)c1C [Example 38, 8-[(2,6-Difluorobenzyl)oxy]-N-(1-ethyl-3,5-dimethyl-1H-pyrazol-4-yl)-2-methylimidazo[1,2-a]pyridine-3-carboxamide]

More lines, now with the values behind:

Molecule	MEC
8-[(2,6-difluorobenzyl)oxy]-N-[1-(2- hydroxyethyl)-5-methyl-3-(trifluoromethyl)-1H- pyrazol-4-yl]-2,6-dimethylimidazo[1,2-a]pyridine- 3-carboxamide [Example 118]	0.1 µM
Cc1nc2c(OCc3c(F)cccc3F)cccn2c1C(=O)Nc1cnn2ccccc12 [Example 1, 8-[(2,6-Difluorobenzyl)oxy]-2-methyl-N-(pyrazolo[1,5-a]pyridin-3-yl)imidazo[1,2-a]pyridine-3-carboxamide]	0.1 µM
Cc1nc2c(OCc3c(F)cccc3F)cccn2c1C(=O)Nc1c[nH]c2ccccc12 [Example 2]	0.1 µM
Cc1nc2c(OCc3c(F)cccc3F)cccn2c1C(=O)Nc1ccc2c(c1)OCC(=O)N2 [Example 6]	0.1 µM
CCc1cc(NC(=O)c2c(C)nc3c(OCc4c(F)cccc4F)cccn23)ccn1 [Example 8]	0.1 µM
Cc1nc2c(OCc3c(F)cccc3F)cccn2c1C(=O)Nc1ccccc1F [Example 10]	0.3 µM
Cc1nc2c(OCc3c(F)cccc3F)cccn2c1C(=O)Nc1ccccc1 [Example 11]	0.3 µM
Cc1cccc(NC(=O)c2c(C)nc3c(OCc4c(F)cccc4F)cccn23)c1C [Example 12]	0.3 µM
COc1cccc(NC(=O)c2c(C)nc3c(OCc4c(F)cccc4F)cccn23)c1 [Example 13]	0.3 µM
Cc1nc2c(OCc3c(F)cccc3F)cccn2c1C(=O)Nc1cccc(Cl)c1C [Example 14]	0.3 µM
COc1ccc(C)c(NC(=O)c2c(C)nc3c(OCc4c(F)cccc4F)cccn23)c1 [Example 16]	0.3 µM
CC(=O)Nc1ccc(NC(=O)c2c(C)nc3c(OCc4c(F)cccc4F)cccn23)cc1C(F)(F)F [Example 18]	0.3 µM
CCn1nccc1NC(=O)c1c(C)nc2c(OCc3c(F)cccc3F)cccn12 [Example 20]	1.0 µM
Cc1nc2c(OCc3c(F)cccc3F)cccn2c1C(=O)Nc1cnn(CC(N)=O)c1 [Example 25, N-[1-(2-amino-2-oxoethyl)-1H-pyrazol-4-yl]-8-[(2,6-difluorobenzyl)oxy]-2-methylimidazo[1,2-a]pyridine-3-carboxamide]	3.0 µM
Cc1nc2c(OCc3c(F)cccc3F)cccn2c1C(=O)Nc1cnn(CC(F)(F)F)c1 [Example 30, 8-[(2,6-difluorobenzyl)oxy]-2-methyl-N-[1-(2,2,2-trifluoroethyl)-1H-pyrazol-4-yl]imidazo[1,2-a]pyridine-3-carboxamide]	0.3 µM
Cc1nc2c(OCc3c(F)cccc3F)cccn2c1C(=O)Nc1cn[nH]c1 [Example 31, 8-[(2,6-difluorobenzyl)oxy]-2-methyl-N-(1H-pyrazol-4-yl)imidazo[1,2-a]pyridine-3-carboxamide]	1.0 µM
Cc1nn(CC(F)(F)F)c(C)c1NC(=O)c1c(C)nc2c(OCc3c(F)cccc3F)cccn12 [Example 32, 8-[(2,6-difluorobenzyl)oxy]-N-[3,5-dimethyl-1-(2,2,2-trifluoroethyl)-1H-pyrazol-4-yl]-2-methylimidazo[1,2-a]pyridine-3-carboxamide]	1.0 µM
Cc1nn(C)c(N2CCOCC2)c1NC(=O)c1c(C)nc2c(OCc3c(F)cccc3F)cccn12 [Example 34, 8-[(2,6-difluorobenzyl)oxy]-N-[1,3-dimethyl-5-(morpholin-4-yl)-1H-pyrazol-4-yl]-2-methylimidazo[1,2-a]pyridine-3-carboxamide]	1.0 µM
